The experiment has as its system GM3. As to the kind of experiment: GM3 Elisa assay. The experiment is classed as cell-based. Conditions: B16-FO cells, read-out: IC50_uM_Mean. In short, it runs like this:
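Cellular GM3 ELISA: fixed cells probed with monoclonal anti-GM3 (NeuAc), HRP-conjugated anti-IgM and fluorogenic Quantablu substrate, read at Ex 325/Em 420. Cells were B16-FO, treated 2 days after a 6 h attachment on collagen-coated wells.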

[1] abbreviates: 48 h, Table 2, 2 days incubation.
Setting [2] is: 48 h, Table 1, 2 days incubation.

pIC50: −log10 of the molar value. Where two headings read alike, the source gives them in different places. Some results are limits rather than exact numbers.

The source of these data is patent US8304447B2, “2-acylaminopropoanol-type glucosylceramide synthase inhibitors” (Genzyme Corporation, priority 2007, dated 2012).

As for `CCCCCCCC(=O)N[C@H](CN1CCCC1)[C@H](O)c1ccc(OC)c(F)c1` [Compound 340], the pIC50 (Table 3 (IC 50 Values)) was 6.00 to 7.00. Regarding `COc1ccc([C@@H](O)[C@@H](CN2CCCC2)NC(=O)Cc2ccc(OC(F)(F)F)cc2)cc1C` [Compound 389], the pIC50 (Table 3 (IC 50 Values)) is at least 7.00.

On to `COCCOc1ccc(C(=O)CCCC(=O)N[C@H](CN2CC[C@H](O)C2)[C@H](O)c2ccc(OC(C)C)cc2)cc1` [Compound 737], for which the pIC50 (Table 3 (IC 50 Values)) is 6.00 to 7.00. On the same count and under the same terms, to `O=C(NCc1ccc(Cl)cc1)N[C@H](CN1CC[C@H](O)C1)[C@H](O)c1ccc(OCCCCF)cc1` [Compound 503] belongs at least 7.00; to `CCCCCCCC(=O)N[C@H](CN1CC[C@@H](O)C1)[C@H](O)c1ccc2c(c1)OCCO2` [Compound 512], 5.52 to 6.00.

As for `COc1ccc([C@@H](O)[C@@H](CN2CCCC2)NC(=O)OCc2ccccc2)cc1` [Compound 246], the pIC50 (Table 2, 2 days incubation) was 5.52 to 6.00. `O=C(CCCc1nc(-c2cccs2)no1)N[C@H](CN1CCCC1)[C@H](OC(=O)CCCc1nc(-c2cccs2)no1)c1ccc2c(c1)OCCO2` [Compound 254]: the pIC50 under setting [1] is 6.00 to 7.00. Regarding `CCCCOc1ccc([C@@H](O)[C@@H](CN2CCCC2)NC(=O)CCOc2ccc(OC)cc2)cc1` [Compound 412], under “Table 3 (IC 50 Values)”, the pIC50 was at least 7.00. `CCCCCCOc1ccc([C@@H](O)[C@@H](CN2CC[C@@H](F)C2)NC(=O)CCCOc2ccc(OC)cc2)cc1` [Compound 730]: the pIC50 (Table 3 (IC 50 Values)) is at least 7.00. As to `COc1ccc(C(=O)CCCCCC(=O)N[C@H](CN2CC(O)C2)[C@H](O)c2ccc3c(c2)OCCO3)cc1` [Compound 600], the pIC50 (Table 3 (IC 50 Values)) was 5.52 to 6.00.

In the case of `CCCCCCC1=CC([C@H](CN2CCCC2)[C@H](O)c2ccc3c(c2)OCCO3)NN1` (some centres unmarked) [Compound 591], the pIC50 (Table 3 (IC 50 Values)) is 5.00 to 5.52. Consider `CCCCCCCCCCCCCCCC(=O)N[C@H](CN(C)Cc1ccco1)[C@H](O)c1ccc2c(c1)OCCO2` [Compound 683], for which, for the setting “Table 3 (IC 50 Values)”, the pIC50 is 5.00 to 5.52. For the compound `CCCCOc1ccc([C@@H](O)[C@@H](CN2CC[C@@H](F)C2)NC(=O)CCCCCOC2CCC2)cc1` [Compound 662], for the setting “Table 3 (IC 50 Values)”, the pIC50 was 6.00 to 7.00. Regarding `CC(C)Oc1ccc(C(=O)CCCCCC(=O)N[C@H](CN2CCCC2)[C@H](O)c2ccc3c(c2)OCO3)cc1` [Compound 268, N-((1R,2R)-1-(benzo[δ][1,3]dioxol-5-yl)-1-hydroxy-3-(pyrrolidin-1-yl)propan-2-yl)-7-(4-isopropoxyphenyl)-7-oxoheptanamide (2S,3S)-2,3-dihydroxysuccinate], under setting [1], the pIC50 is at least 7.00. Regarding `O=C(N[C@H](CN1CCCC1)[C@H](O)c1ccc2c(c1)OCCO2)C1(C(=O)c2ccc(F)cc2)CC1` [Compound 638], the pIC50 (Table 3 (IC 50 Values)) was 5.00 to 5.52.

As for `CCCCCCCC(=O)N[C@H](CN1CCCC1)[C@H](O)c1ccc(OC)c(OC)c1` [Compound 321], the pIC50 under setting [1] is 5.52 to 6.00. As for `COCCOc1ccc([C@@H](O)[C@@H](CN2CCCC2)NC(=O)CCOc2ccc(OC)cc2)cc1` [Compound 714], the pIC50 (Table 3 (IC 50 Values)) was 5.00 to 5.52.

Consider `CC(C)CC(=O)c1ccc(OCCC(=O)N[C@H](CN2CCCC2)[C@H](O)c2ccc3c(c2)OCCO3)cc1` [Compound 187, N-((1R,2R)-1-(2,3-dihydrobenzo[β][1,4]dioxin-6-yl)-1-hydroxy-3-(pyrrolidin-1-yl)propan-2-yl)-3-(4-(3-methylbutanoyl)phenoxy)propanamide (2S,3S)-2,3-dihydroxysuccinate], for which, under setting [2], the pIC50 was 6.00 to 7.00. `O=C(N[C@H](CN1CCCC1)[C@H](O)c1ccc2c(c1)OCCO2)[C@@H](O)Cc1ccccc1` [Compound 25, (S)—N-((1R,2R)-1-(2,3-dihydrobenzo[β][1,4]dioxin-6-yl)-1-hydroxy-3-(pyrrolidin-1-yl)propan-2-yl)-2-hydroxy-3-phenylpropanamide]: under setting [2], the pIC50 is 6.00 to 7.00.

Take `CCCCNC[C@@H](NC(=O)CCCCCC(=O)c1ccc(OC)cc1)C(O)c1ccc2c(c1)OCCO2` (some centres unmarked) [Compound 462]: the pIC50 (Table 3 (IC 50 Values)) is 5.52 to 6.00.

In the case of `COc1ccc(OCCC(=O)N[C@H](CN2CCC2)[C@H](O)c2ccc3c(c2)OCCO3)cc1` [Compound 599], the pIC50 (Table 3 (IC 50 Values)) was 5.52 to 6.00. Same read-out and setting: to `COC[C@@H]1CCCN1C[C@@H](NC(=O)CCOc1ccc(OC)cc1)[C@@H](O)c1ccc2c(c1)OCCO2` [Compound 535] belongs 5.00 to 5.52. `COc1ccc(OCCCN(C(=O)CCCCC(=O)c2ccc(OC)cc2)[C@H](CN2CCCC2)[C@H](O)c2ccc(O)cc2)cc1` [Compound 429]: where the note is “Table 3 (IC 50 Values)”, the pIC50 is 5.00 to 5.52. With `CCCCCCCC(=O)N[C@H](Cn1ccnc1C)[C@H](O)c1ccc2c(c1)OCCO2` [Compound 571], the pIC50 (Table 3 (IC 50 Values)) is 5.00 to 5.52.

On to `O=C(CCOc1cc(Cl)ccc1Cl)N[C@H](CN1CCCC1)[C@H](O)c1ccc2c(c1)OCCO2` [Compound 55, 3-(2,5-dichlorophenoxy)-N-((1R,2R)-1-(2,3-dihydrobenzo[β][1,4]dioxin-6-yl)-1-hydroxy-3-(pyrrolidin-1-yl)propan-2-yl)propanamide], for which the pIC50 under setting [2] is at least 7.00. Turning to `CCCCCCCC(=O)N[C@H](CN1C(C)CCC1C)[C@H](O)c1ccc2c(c1)OCCO2` (some centres unmarked) [Compound 314], the pIC50 under setting [1] was 5.52 to 6.00.

Consider `COc1ccc(C(=O)CCCCCC(=O)N[C@H](CN2CCCC2)[C@H](O)c2ccc(OC)c(F)c2)cc1` [Compound 345], for which the pIC50 (Table 3 (IC 50 Values)) is at least 7.00. For `COc1ccc(C(=O)CCCCC(=O)N[C@H](CN2CCCC2)[C@H](O)c2ccc3c(c2)OCO3)cc1` [Compound 267, N-((1R,2R)-1-(benzo[δ][1,3]dioxol-5-yl)-1-hydroxy-3-(pyrrolidin-1-yl)propan-2-yl)-6-(4-methoxyphenyl)-6-oxohexanamide (2S,3S)-2,3-dihydroxysuccinate], under setting [1], the pIC50 is at least 7.00. Regarding `COc1ccc(OCCCC(=O)N[C@H](CN2CC[C@@H](F)C2)[C@H](O)c2ccc(OCCCCF)cc2)cc1` [Compound 734], where the note is “Table 3 (IC 50 Values)”, the pIC50 was at least 7.00. For the compound `COc1ccc(C(=O)CCCCCC(=O)N[C@@H](CN(C)C(C)C)[C@@H](O)c2ccc3c(c2)OCCO3)cc1` [Compound 468], under “Table 3 (IC 50 Values)”, the pIC50 is at least 7.00. Regarding `CCCCCCCC(=O)N[C@H](CN1C[C@@H]2CC[C@H]1C2)[C@H](O)c1ccc2c(c1)OCCO2` [Compound 545], the pIC50 (Table 3 (IC 50 Values)) is 6.00 to 7.00. Consider `COc1ccc(C(=O)CCCCCC(=O)N[C@H](CN2CC[C@H](O)C2)[C@H](O)c2ccc3c(c2)OCCO3)cc1` [Compound 532], for which the pIC50 (Table 3 (IC 50 Values)) is at least 7.00. On to `CCCCOc1ccc([C@@H](O)[C@@H](CN2CC[C@@H](F)C2)NC(=O)CCCCC(=O)C2CCCCC2)cc1` [Compound 585], for which the pIC50 (Table 3 (IC 50 Values)) is 6.00 to 7.00. On to `Cc1ccc(OCCC(=O)N[C@H](CN2CCCC2)[C@H](O)c2ccc3c(c2)OCCO3)cc1` [Compound 59, N-((1R,2R)-1-(2,3-dihydrobenzo[β][1,4]dioxin-6-yl)-1-hydroxy-3-(pyrrolidin-1-yl)propan-2-yl)-3-(p-tolyloxy)propanamide], for which the pIC50 under setting [2] was at least 7.00. On the same count and under the same terms, to `C[C@H](NC(=O)N[C@H](CN1CCCC1)[C@H](O)c1ccc2c(c1)OCCO2)c1ccccc1` [Compound 10, 1-((1R,2R)-1-(2,3-dihydrobenzo[β][1,4]dioxin-6-yl)-1-hydroxy-3-(pyrrolidin-1-yl)propan-2-yl)-3-((S)-1-phenylethyl)urea] belongs 6.00 to 7.00. `O=C(N[C@H](CN1CCCC1)[C@H](O)c1ccc2c(c1)OCCO2)C1CCOCC1` [Compound 579]: under “Table 3 (IC 50 Values)”, the pIC50 is 5.00 to 5.52.

Regarding `CCCCCCOc1ccc([C@@H](O)[C@@H](CN2CC[C@H](O)C2)NC(=O)CCCCCC(=O)c2ccc(OC)cc2)cc1` [Compound 372], the pIC50 (Table 3 (IC 50 Values)) is at least 7.00. As for `CCCCCCCC(=O)N[C@H](CN1CCCC1)[C@H](O)c1cc(OC)c(OC)c(OC)c1` [Compound 669], the pIC50 (Table 3 (IC 50 Values)) was 5.00 to 5.52.

In the case of `CCCCCCCC(=O)N[C@H](CN1CC[C@H](F)C1)[C@H](O)c1ccc2c(c1)OCCO2` [Compound 510], under “Table 3 (IC 50 Values)”, the pIC50 is 5.00 to 5.52.

Turning to `O=C(CCCCC1CCOCC1)N[C@H](CN1CCCC1)[C@H](O)c1ccc2c(c1)OCCO2` [Compound 581], the pIC50 (Table 3 (IC 50 Values)) is 6.00 to 7.00. As to `COc1ccc(C(=O)CCCC(=O)N[C@H](CN2CC[C@@H](F)C2)[C@H](O)c2ccc(OC(C)C)cc2)cc1` [Compound 444], the pIC50 (Table 3 (IC 50 Values)) was 6.00 to 7.00. `COc1ccc(OCCC(=O)N[C@H](CN2CCCCC2C)[C@H](O)c2ccc3c(c2)OCCO3)cc1` (some centres unmarked) [Compound 606]: the pIC50 (Table 3 (IC 50 Values)) was 5.00 to 5.52.

For `COCCOc1ccc([C@@H](O)[C@@H](CN2CCCC2)NC(=O)CCCCC(=O)c2ccc(OC)cc2)cc1` [Compound 417], the pIC50 (Table 3 (IC 50 Values)) is at least 7.00. The same measure, in the same setting: to `CCCCCCCC(=O)N[C@H](CN1CC[C@H](O)C1)[C@H](O)c1ccc2c(c1)OCCO2` [Compound 515] belongs at least 7.00; to `COc1ccc(C(=O)CCCCC(=O)N[C@H](CN2CC[C@H](O)C2)[C@H](O)c2ccc(OC(C)C)cc2)cc1` [Compound 375], 6.00 to 7.00; to `CCCCCCCC(=O)N[C@H](CCN1CCOCC1)[C@H](O)c1ccc2c(c1)OCCO2` [Compound 686], 5.00 to 5.52. The same measure, in the same setting: to `COc1ccc(OCCC(=O)N[C@H](CN2CC[C@H](O)C2)[C@H](O)c2ccc(OCCCCF)cc2)cc1` [Compound 502] belongs at least 7.00. In the case of `COc1ccc(C(=O)CCCCCC(=O)N[C@H](CN2CCCC2)[C@H](O)c2ccccc2OC)cc1` [Compound 699], the pIC50 (Table 3 (IC 50 Values)) is at least 7.00. The same measure, in the same setting: to `COc1ccc(OCCC(=O)N[C@H](CN2CCCC2)[C@H](O)c2ccccc2OC)cc1` [Compound 700] belongs 6.00 to 7.00.

For the compound `CCCCCCCC(=O)N[C@H](CN1CCC[C@H]1C(F)(F)F)[C@H](O)c1ccc2c(c1)OCCO2` [Compound 543], the pIC50 (Table 3 (IC 50 Values)) is 5.00 to 5.52. Turning to `CCCCCCCCCCCCCCCC(=O)N[C@H](CN1CCCC1)[C@H](O)c1ccc(O)cc1` [Compound 309], the pIC50 under setting [1] is at least 7.00.

With `O=C(CCCCCNC(=O)C(F)(F)F)N[C@H](CN1CCCC1)[C@H](O)c1ccc2c(c1)OCCO2` [Compound 481], the pIC50 (Table 3 (IC 50 Values)) was 5.00 to 5.52.

`O=C(CCC12CC3CC(CC(C3)C1)C2)N[C@H](CN1CCCC1)[C@H](O)c1ccc2c(c1)OCCO2` [Compound 637]: the pIC50 (Table 3 (IC 50 Values)) was 6.00 to 7.00.
